Here are results for six molecules from article PMC6718442, “11β-Hydroxysteroid dehydrogenases control access of 7β,27-dihydroxycholesterol to retinoid-related orphan receptor γ” (Journal of Lipid Research, 2019).

Experiment [1] addresses T1, human 11β-HSD1 (Homo sapiens, UniProt P28845).
T1 construct: expressed in transfected cells
The note with it: substrate of 11β-HSD1, cited from earlier work.

The target in experiment [2] is T1, human 11β-HSD1. Also noted: method as in PMID 30902677. To be noted: intact cells, oxoreduction by 11β-HSD1, ref [46], cited from earlier work.
The target in experiment [3] is T2, RORγ (Homo sapiens, UniProt P51449).
T2 sequence (P51449 1-518): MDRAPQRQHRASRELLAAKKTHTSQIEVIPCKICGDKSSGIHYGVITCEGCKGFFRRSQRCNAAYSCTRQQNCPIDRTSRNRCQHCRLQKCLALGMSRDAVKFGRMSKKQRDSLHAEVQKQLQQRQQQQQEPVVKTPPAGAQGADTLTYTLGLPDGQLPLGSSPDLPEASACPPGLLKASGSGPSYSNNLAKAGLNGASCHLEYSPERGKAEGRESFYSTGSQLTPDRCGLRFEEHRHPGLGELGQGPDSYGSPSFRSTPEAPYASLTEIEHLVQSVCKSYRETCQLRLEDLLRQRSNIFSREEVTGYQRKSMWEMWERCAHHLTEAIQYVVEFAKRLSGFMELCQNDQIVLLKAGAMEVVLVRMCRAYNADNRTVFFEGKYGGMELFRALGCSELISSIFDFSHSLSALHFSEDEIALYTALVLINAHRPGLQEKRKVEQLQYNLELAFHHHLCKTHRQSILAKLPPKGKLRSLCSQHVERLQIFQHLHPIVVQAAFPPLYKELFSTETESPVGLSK
The experiment in a line: Glucose-6-phosphatase luciferase reporter in SW-620 cells overexpressing RORγ (preliminary). The format is cell-based. Set-up: expressed in transfected cells; host or cells: SW-620. The note with it: inhibition of 11β-HSD2 by GA in SW-620 cells, trend. A general note: In a reporter assay the amount or activity of a reporter protein is the signal.

Experiment [4] has as its target T3, 11β-HSD2 (Homo sapiens, UniProt P80365).
T3 construct: expressed in transfected cells
T3 sequence (P80365 1-405): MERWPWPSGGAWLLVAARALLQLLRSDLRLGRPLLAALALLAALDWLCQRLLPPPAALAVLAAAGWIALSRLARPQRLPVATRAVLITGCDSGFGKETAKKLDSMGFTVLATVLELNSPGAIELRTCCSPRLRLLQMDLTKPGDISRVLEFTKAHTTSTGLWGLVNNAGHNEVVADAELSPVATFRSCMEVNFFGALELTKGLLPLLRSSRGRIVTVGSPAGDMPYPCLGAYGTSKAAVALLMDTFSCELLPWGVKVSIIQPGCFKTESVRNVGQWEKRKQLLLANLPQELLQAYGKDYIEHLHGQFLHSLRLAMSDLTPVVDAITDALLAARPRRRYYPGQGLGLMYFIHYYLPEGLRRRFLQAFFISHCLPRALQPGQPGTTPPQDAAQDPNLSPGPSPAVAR
To be noted: substrate of 11β-HSD2, ref [34], cited from earlier work.

For experiment [5], the target named is T3, 11β-HSD2. Set-up: method as in PMID 30902677. To be noted: intact cells, oxidation by 11β-HSD2, ref [46], cited from earlier work.

The structures appear in SMILES notation. Where two headings read alike, the source gives them in different places.

T1 sequence (P28845 whole entry): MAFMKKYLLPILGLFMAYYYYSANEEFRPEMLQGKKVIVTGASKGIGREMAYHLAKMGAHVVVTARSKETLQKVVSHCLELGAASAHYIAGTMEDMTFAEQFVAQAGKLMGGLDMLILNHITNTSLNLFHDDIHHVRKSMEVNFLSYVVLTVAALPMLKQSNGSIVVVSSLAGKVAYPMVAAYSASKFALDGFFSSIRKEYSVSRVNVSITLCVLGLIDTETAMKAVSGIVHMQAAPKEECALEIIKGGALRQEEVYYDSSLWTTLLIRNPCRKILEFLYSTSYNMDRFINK

As for `CC(C)CCC[C@@H](C)[C@H]1CC[C@H]2[C@@H]3C(=O)C=C4C[C@@H](O)CC[C@]4(C)[C@H]3CC[C@]12C` [7kC, 7-ketocholesterol], the KMapp in experiment [1] (ref [19]) is recorded as around 500 nM.

For the molecule `C[C@]12CCC(=O)C=C1CC[C@@H]1[C@@H]2C(=O)C[C@@]2(C)[C@H]1CC[C@]2(O)C(=O)CO` [cortisone, reference compound], the KMapp in experiment [1] (ref [19], [34]) was 250 to 500 nM; in experiment [1] (ref [19], [34], listed as Cortisone), 250–500 ([19], [34]) nM. Also, the Vapp cell intact in experiment [2] was 1.59 ± 0.25 nmol·h^−1·mg total protein^−1; in experiment [2] (listed as Cortisone), 1.59 ± 0.25 ([46]) nmol·h^−1·mg total protein^−1.

As for `CC1(C)[C@@H](O)CC[C@]2(C)[C@H]3C(=O)C=C4[C@@H]5C[C@@](C)(C(=O)O)CC[C@]5(C)CC[C@@]4(C)[C@]3(C)CC[C@@H]12` [GA, glycyrrhetinic acid], in experiment [3], the “Increase of RORγ activity compared with cells treated with 7β27OHC only” value is on record as “approximately 10%”.

Take `C[C@H](CCC(=O)O)[C@H]1CC[C@H]2[C@@H]3C(=O)C[C@@H]4C[C@H](O)CC[C@]4(C)[C@H]3CC[C@]12C` [7oxoLCA, 7-oxolithocholic acid]: the KMapp in experiment [1] (ref [49]) is recorded as around 1000 nM.

Turning to `C[C@]12CCC(=O)C=C1CC[C@@H]1[C@@H]2[C@@H](O)C[C@@]2(C)[C@H]1CC[C@]2(O)C(=O)CO` [cortisol], the KMapp in experiment [4] was around 200 nM; in experiment [4] (listed as Cortisol) it was 200 ([34]) nM. In addition, the figures for the Vapp cell intact in experiment [5] and in experiment [5] (listed as Cortisol) were 1.01 ± 0.35 nmol·h^−1·mg total protein^−1 and 1.01 ± 0.35 ([46]) nmol·h^−1·mg total protein^−1, respectively.

For `C[C@]12CC(=O)[C@H]3[C@@H](CCC4=CC(=O)CC[C@@]43C)[C@@H]1CC[C@@H]2C(=O)CO` [11-DHC, 11-dehydrocorticosterone], the KMapp in experiment [1] (ref [19], [34]) is 250 to 500 nM.
